The assay has as its system trained panellists. The assay is described as follows: Sensory evaluation of tablets by 11 trained panellists. The class given is in vivo. As for the experimental part:
Bars coloured black denote a significant difference in a particular taste/sensory characteristic. Unshaded bars denote that there is no significant difference in the characteristic. A positive number represents an increased sensory response of the co-crystal compared to the physical mixture.
Tablets for sensory evaluation were prepared using a Romaco Kilian Styl'One single-stroke tablet press. […] The tablets were prepared with three compressions of 300 ms and an interval of 200 ms.
Each of the panellists received a tray with two tablets presented on plastic plates coded with random 3-digit numbers. The tablets had to be crunched with the front teeth and kept in mouth to dissolve slowly (method 1). Alternatively, tablets could be crunched with the front teeth and chewed constantly in the mouth until complete dissolution occurred (method 2).
Afterwards the panellists were asked to rate the taste of the tablets in respect of the following 12 categories: upfront saltiness (1), overall saltiness (2), sweetness (3), sourness (4), umami (5), friable (6), melting (7), overall persistence (8), saltiness persistence (9), sweetness persistence (10), sourness persistence (11), and tingling (12).

This is an account of results in patent US20190328016A1, “SALT COMPOSITION INCLUDING SARCOSINE” (NESTEC S.A., priority 2016, published 2019).

Consider `N[C@@H](CO)C(=O)O.N[C@@H](CO)C(=O)O.[Cl-].[Na+]` [(L-serine)2.sodium chloride co-crystals, (L-serine)2.sodium chloride], for which the “perceived salty taste versus corresponding physical mix” value (25 mg sodium chloride per tablet, during and after consumption) is on record as “significantly more salty”. Also, under “11 trained panellists, FIG. 2”, the “overall saltiness versus physical mix” value is on record as “superior”, the “saltiness persistence versus physical mix” value is “superior” and the “upfront saltiness versus physical mix” value is “superior”.
